# Key:
# SK-N-AS = assay: MTT cytotoxicity assay (% kill), SK-N-AS; type: cell-based, human; conditions: 1 h exposure, MTT after five days
# Procedure, shortened: (§1)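 Cells grown in 10% FBS Eagles MEM at 37 °C, 5% CO2, sextuplicate wells, exposed to compound at 0.1 or 1.0 μg/mL for 1 h or 24 h. After rinsing, they were cultured 5 more days. Viable cells then measured by MTT, expressed as % kill.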
# LS-174T = assay: MTT cytotoxicity assay (% kill), LS-174T; type: cell-based, human; conditions: 1 h exposure, MTT after five days
# Procedure, shortened: as §1
# WiDr = assay: MTT cytotoxicity assay (% kill), WiDr; type: cell-based, human; conditions: 0.1 μg/mL, 1 h exposure
# Method: (§2) The following human tumor cell lines were obtained and cultured in sextuplicate microwells at 37° C. and 5% CO2 in humidified air and in 10% FBS in Eagles MEM: SK—N—FI, SK—N-AS, LS-174T, WiDr, HuTu-80, MCF7, NCI-AR, MES-Sar, and PL-45. Cells from each cell line were separately treated with an amount of one of the compounds of Formula I, II, or III (see Table 1). Cells were exposed to each compound (0.1 μg/mL or 1.0 μg/mL) for one hour or 24 hours, rinsed with drug-free media, and incubated for an additional five days. The number of viable cells after five days was measured using an MTT (3-(4,5-dimethylthiazol-2-yl)-2,5-diphenyltetrazolium bromide) assay (see, e.g., Mosmann, J. Immunol. Methods, 65(1-2), 55-63 (1983)).
# (§3) The cytotoxicity of each drug was determined and expressed as the percent of cells killed (“% kill”).
# MCF7 = assay: MTT cytotoxicity assay (% kill), MCF7; type: cell-based, human; conditions: 1 h exposure
# Method: as §2, §3
# NCI-AR = assay: MTT cytotoxicity assay (% kill), NCI-AR; type: cell-based, human; conditions: 1 h exposure
# Method: as §2, §3
# MES-Sar = assay: MTT cytotoxicity assay (% kill), MES-Sar; type: cell-based, human; conditions: 1 h exposure
# Method: as §2, §3
# PL-45 = assay: MTT cytotoxicity assay (% kill), PL-45; type: cell-based, human; conditions: 1 h exposure
# Method: as §2, §3
# tumor cells = assay: Inhibition of tumor growth in vivo (% T/C) in SCID mice
# Method: SCID mice weighing more than 17 grams were supplied food and water ad libidum. The animals were pooled, implanted subcutaneously with tumor cells, and pooled again before distribution to treatment and control groups. Treatment was started when the tumors were palpable (i.e., 10 days after inoculation). Mice received one of four doses (i.e., 1.6, 1.2, 0.8, and 0.4 mg/mouse) of the inventive compound. Each dose was administered intravenously via the tail vein once per day for 5 days. Mice were killed when their tumors reached 1500 mm^3.
# Tumor weights were estimated from two-dimensional caliper measurements performed twice a week according to the following formula: Tumor Weight (mg)=(a×b^2)/2 in which a and b are the tumor length and width, respectively, in millimeters.
# Therapeutic efficacy was measured as the % T/C value (T=treated, C=control), which was determined each time a tumor measurement was made. The median tumor weight of the treatment and control groups was determined. A % T/C value equal to or less than 50% indicates antitumor activity. A % T/C value of <10% indicates highly significant antitumor activity, and is the level used by the National Cancer Institute (NCI) to justify a clinical trial if toxicity, formulation and other requirements are met. A weight loss of greater than 20% (mean of group) or greater than 20% drug deaths indicates an excessively toxic dose.
structure (smiles),measurement,setting,value
COC(=O)[C@@]12OC[C@@]34C1[C@@H](OC(=O)CC(O)(C(C)C)C(C)C)C(=O)O[C@@H]3C[C@H]1C(C)=C(O)C(=O)C[C@]1(C)[C@H]4[C@@H](O)[C@@H]2O (stereo partly shown) [15-O-(3′-hydroxy-3′-isopropyl-4′-methylpentanoyl)bruceolide],"% Kill, SK-N-AS",SK-N-AS; 0.1 μg/mL,0%
same,"% Kill, SK-N-AS",SK-N-AS; 1.0 μg/mL,3%
same,"% Kill, LS-174T",LS-174T; 0.1 μg/mL,0%
same,"% Kill, LS-174T",LS-174T; 1.0 μg/mL,13%
same,"% kill, WiDr",WiDr,0%
same,"% kill, MCF7",MCF7; 0.1 μg/mL,12%
same,"% kill, MCF7",MCF7; 1.0 μg/mL,31%
same,"% kill, NCI-AR",NCI-AR; 0.1 μg/mL,0%
same,"% kill, NCI-AR",NCI-AR; 1.0 μg/mL,0%
same,"% kill, MES Sar",MES-Sar; 0.1 μg/mL,0%
same,"% kill, MES Sar",MES-Sar; 1.0 μg/mL,0%
same,"% kill, PL-45",PL-45; 0.1 μg/mL,0%
same,"% kill, PL-45",PL-45; 1.0 μg/mL,0%
same,% T/C,tumor cells; 0.4 mg/mouse intravenously once per day for 5 days (lower dose group),31%
same,% T/C,tumor cells; 0.8 mg/mouse intravenously once per day for 5 days (higher dose group of the surviving two),16%
same,mortality,tumor cells; highest two doses (1.6 and 1.2 mg/mouse) intravenously once per day for 5 days,died

# From US20060281807A1, “Quassinoid compositions for the treatment of cancer and other proliferative diseases” (Tapestry Pharmaceuticals, Inc., priority 2005, published 2006)
